Experimental data taken from patent publication US12070445B2, “System and assay for monitoring production/release of membrane-lytic toxins in bacteria and compounds for modulating same” (priority 2021, dated 2024).
Read-outs that look alike come from different tables or passages of the source.

Tests used:
[1] = system: S. aureus; assay: S. aureus growth (OD600); format: cell-based; conditions: S. aureus, HTS hits
Experimental: Microtiter plate vesicle lysis assays. Portions of media (2 or 10 mL) were inoculated with individual bacterial colonies and allowed to shake overnight. From these overnight cultures, subcultures were prepared by diluting the cultures 1:50 (v/v) in fresh BHI for S. aureus or 1:100 (v/v) in fresh LB for P. aeruginosa. An aliquot of each subculture (178 μL) was added to 20 μL of vesicle suspension and 2 μL of compound solution (dissolved in DMSO at 100× working concentration) in a clear-bottomed, black 96-well microtiter plate (Corning 3904). For controls, DMSO (vehicle) or Triton X-100 (1% final concentration) was substituted for compound. Plate covers were coated with an aqueous solution of 0.05% Triton X-100 and 20% ethanol (Brewster, 2003) to prevent the accumulation of condensation. Plates were incubated in a Biotek Synergy 2 microplate reader running Gen5 1.05 software at 37° C. with shaking at the high-speed setting. Fluorescence (excitation 500 nm, emission 540 nm) and OD600 (absorbance at 600 nm) measurements were recorded every 15 minutes for 12 hours. All experiments were performed in technical triplicate in a single microtiter plate. Biological triplicates were then obtained over three days. GraphPad Prism software (v. 9) was used to generate curves and calculate standard error.
High-throughput screening and follow-up analysis protocols. Test compounds and positive control 1 were delivered in 2.5 nL aliquots of DMSO with an Echo 550 liquid handler (LabCyte Inc.) into black 384-well microtiter plates (Corning). All test compounds were tested at 10 μM; positive control 1 was tested at 250 nM. DMSO was used as a negative control. Overnight cultures (2 mL) of WT S. aureus (RN6390b) were grown at 37° C. with shaking at 200 rpm. These cultures were diluted 1:500 (v/v) in fresh BHI medium, at which point vesicle solutions were added to a final concentration of 1 mM phospholipid (as determined by ^31P NMR analyses). This vesicle-cell mixture was then added to the 384-well microtiter plates with a Multidrop 384 liquid-dispensing robot (Thermo Scientific) for a total volume of 50 μL per well. Plates were incubated statically for ˜24 hr at 37° C., at which point fluorescence (excitation 483, emission 530) and OD600 (absorbance at 600 nm) measurements were made using a CLARIOstarR Plus microtiter plate reader (BMG Labtech) running MARS data analysis software. Scatter plots were generated using the Collaborative Drug Discovery Vault informatics platform. […] Fluorescence (excitation 510, emission 544) and OD600 measurements were acquired with a PerkinElmer EnVision microtiter plate reader running Envision Manager software. […]

[2] = system: agr; assay: agr YFP transcriptional reporter assay (S. aureus AH1677 with pDB59); format: cell-based; conditions: for IC50: Staphylococcus aureus
Experimental: Bacterial strains and culture. All bacteria were grown at 37° C. with 200 rpm shaking unless otherwise specified. S. aureus and P. aeruginosa were grown in BHI medium and LB medium, respectively. S. aureus AH1677 (with an agr-YFP reporter plasmid) and P. aeruginosa PAO1-PGSC (with a plasI-LVAgfp reporter plasmid) were used as QS transcriptional reporters and grown with 10 μg/mL chloramphenicol and 300 μg/mL carbenicillin, respectively. All other strains were grown without supplemental antibiotic. S. aureus RN6390b and P. aeruginosa PAO1-PGSC were used as WT strains in vesicle lysis experiments, while S. aureus RN9222 and P. aeruginosa PAO-JG35 were used as QS mutants. RN9222 was grown without antibiotic as it was not used as a reporter strain (i.e., it served only as QS mutant).
High-throughput screening and follow-up analysis protocols. Test compounds and positive control 1 were delivered in 2.5 nL aliquots of DMSO with an Echo 550 liquid handler (LabCyte Inc.) into black 384-well microtiter plates (Corning). All test compounds were tested at 10 μM; positive control 1 was tested at 250 nM. DMSO was used as a negative control. Overnight cultures (2 mL) of WT S. aureus (RN6390b) were grown at 37° C. with shaking at 200 rpm. These cultures were diluted 1:500 (v/v) in fresh BHI medium, at which point vesicle solutions were added to a final concentration of 1 mM phospholipid (as determined by ^31P NMR analyses). This vesicle-cell mixture was then added to the 384-well microtiter plates with a Multidrop 384 liquid-dispensing robot (Thermo Scientific) for a total volume of 50 μL per well. Plates were incubated statically for ˜24 hr at 37° C., at which point fluorescence (excitation 483, emission 530) and OD600 (absorbance at 600 nm) measurements were made using a CLARIOstarR Plus microtiter plate reader (BMG Labtech) running MARS data analysis software. Scatter plots were generated using the Collaborative Drug Discovery Vault informatics platform. The dose-response experiment using the vesicle lysis assay was performed in a 384-well plate in technical duplicate with compound concentrations of 0.1, 0.25, 0.5, 1, 2.5, 5, 10, and 20 μM. Dose-response curves were generated using variable slope (4 parameter) non-linear regression analysis for compound inhibition using GraphPad Prism software (v. 9). Analysis of the QS modulatory activity of the HTS hits and 6 (savirin) was performed using the S. aureus YFP transcriptional reporter strain. HTS hits were purchased directly from Life Chemicals, Inc. DMSO stock solutions (10 mM) of each compound were prepared and stored at −20° C. Serial dilutions (1:3) were prepared from the stock solutions in DMSO, and 2 μL aliquots of the resulting dilutions were added to the wells of black 96-well microtiter plates (Corning). Overnight cultures of the S. aureus reporter strain (2 mL) were grown at 37° C. with shaking at 200 rpm. Cultures were diluted 1:50 (v/v) into fresh BHI medium, and 198 μL of this diluted culture were added to each well containing compound, for a total volume of 200 μL per well. All plates contained a vehicle control consisting of 2 μL of DMSO and 198 μL of culture and a media control consisting of 200 μL BHI. Plates were incubated for ˜24 hours at 37° C. with shaking at 200 rpm. Fluorescence (excitation 510, emission 544) and OD600 measurements were acquired with a PerkinElmer EnVision microtiter plate reader running Envision Manager software. Background fluorescence from BHI control was subtracted from raw fluorescence reads, OD600 corrected, and finally normalized to vehicle control. Dose-response curves and IC50 values were generated using 3-parameter non-linear regression analysis for compound inhibition using GraphPad Prism software (v. 9). All compounds were tested in technical triplicate with at least 3 biological replicates.

[3] = molecular target: T1, human apelin receptor (Homo sapiens, UniProt P35414); conditions: Smith, 2019; cited from earlier work
T1 sequence (P35414 1-380): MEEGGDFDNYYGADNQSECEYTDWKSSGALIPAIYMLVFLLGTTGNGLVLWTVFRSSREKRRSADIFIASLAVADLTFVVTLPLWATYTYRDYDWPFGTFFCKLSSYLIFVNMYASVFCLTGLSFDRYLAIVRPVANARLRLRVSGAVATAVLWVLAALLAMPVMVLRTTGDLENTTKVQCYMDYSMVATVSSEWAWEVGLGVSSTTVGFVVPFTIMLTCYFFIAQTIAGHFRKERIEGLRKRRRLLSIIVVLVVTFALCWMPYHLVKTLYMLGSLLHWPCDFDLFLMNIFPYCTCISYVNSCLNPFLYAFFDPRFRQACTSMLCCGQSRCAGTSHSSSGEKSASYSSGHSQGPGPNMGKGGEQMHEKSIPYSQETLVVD

[4] = Solubility in DMSO and aqueous solutions

Cc1nn2c(C(C)C)cc(C(=O)O)nc2c1-c1ccccc1 [Compound 10, 7-isopropyl-2-methyl-3-phenylpyrazolo[1,5-a]pyrimidine-5-carboxylic acid]
inhibition of cellular growth [1]: do not inhibit cellular growth | agr inhibition in agr transcriptional reporter assay ([2]; S. aureus agr YFP reporter): near maximal agr inhibitors | IC50 [2]: 1220 nM | IC50 ([2]; 24 h, read-out: IC50 in the agr reporter assay): 500 nM | reported activity at human apelin receptor [3]: agonists | solubility in DMSO and aqueous solutions [4]: readily soluble
